The results in this text go back to publication PMC8305912, “The HDAC/HSP90 Inhibitor G570 Attenuated Blue Light-Induced Cell Migration in RPE Cells and Neovascularization in Mice through Decreased VEGF Production” (Molecules, 2021).

Test [1] relates to HeLa nuclear extract HDAC. The test can be described thus: HeLa nuclear extract HDAC activity assay. The following applies: HeLa nuclear extract as HDAC source. Type of test: biochemical.
The next test addresses T1, Hsp90α (Homo sapiens, UniProt P07900).
T1 construct: purchased BPS Bioscience
In words: Heat shock protein (Hsp) 90α activity assay (fluorescence polarization, FITC-labeled geldanamycin). Type of test: binding. The following applies: read-out: HSP90 IC50. (In general: Polarisation of emitted light reports the rotation of a fluorescent probe.)

The test system of test [2] is laser-induced choroidal neovascularization (CNV). The test can be described thus: Laser-induced choroidal neovascularization (CNV) model, fundus fluorescein angiography. To be noted: day 7, vs vehicle; G570 20 mg/kg/day i.p. days 0, 1, 3, 5; Eylea 40 μg/1 μL per eye i.v.t. day 0. Type of test: in vivo, C57BL/6 mice.

One may read the IC50 as the concentration that inhibits the measured activity by half. Consider `COc1c(C)cnc(Cn2cnc3c(Cl)nc(N)nc32)c1C` [BIIB021], for which the IC50 in test [1] was above 1 µM. Take `CC(C)c1cc(C(=O)N2CCc3cc(NC(=O)CCC(=O)NO)ccc32)c(O)cc1O` [Compound 1, N1-(1-(2,4-dihydroxy-5-isopropylbenzoyl)indolin-5-yl)-N4-hydroxysuccinamide]: the IC50 on Hsp90α came to 0.0493 ± 0.0016 µM. On the same count and under the same terms, the value for `CC(C)c1cc(C(=O)N2CCc3cc(NC(=O)CCCC(=O)NO)ccc32)c(O)cc1O` [Compound 2, N1-(1-(2,4-dihydroxy-5-isopropylbenzoyl)indolin-5-yl)-N5-hydroxyglutaramide] was 0.0559 ± 0.0032 µM. Same read-out and setting: the value for `CC(C)c1cc(C(=O)N2CCc3cc(NC(=O)CCCCCC(=O)NO)ccc32)c(O)cc1O` [Compound 4, N1-(1-(2,4-dihydroxy-5-isopropylbenzoyl)indolin-5-yl)-N7-hydroxyheptanediamide] was 0.0402 ± 0.0052 µM; that for `CC(C)c1cc(C(=O)N2CCc3cc(NC(=O)CCCCCCCC(=O)NO)ccc32)c(O)cc1O` [Compound 6, N1-(1-(2,4-dihydroxy-5-isopropylbenzoyl)indolin-5-yl)-N9-hydroxynonanediamide] was 0.0521 ± 0.0029 µM; that for `CC(C)c1cc(C(=O)N2CCc3cc(NC(=O)CCCCCCCCC(=O)NO)ccc32)c(O)cc1O` [Compound 7, N1-(1-(2,4-dihydroxy-5-isopropylbenzoyl)indolin-5-yl)-N10-hydroxydecanediamide] was 0.0586 ± 0.0022 µM. Turning to `O=C(CCCCCCC(=O)Nc1ccccc1)NO` [SAHA, reference compound], the IC50 on Hsp90α was above 1 µM. aflibercept [Eylea]: the “laser-induced leakage area of fluorescein (FFA)” value in test [2] was “significantly decreased”.
